In patent US7732451B2, “Naphthalene-containing melanocortin receptor-specific small molecule” (Palatin Technologies, Inc., priority 2002, dated 2010):

Assays:
[1] = IV feeding studies, change in food intake and body weight; type: in vivo, rat; details: 3 μg/Kg, male Sprague-Dawley rats
Procedure: Change in food intake and body weight was evaluated for selected compounds. Male Sprague-Dawley rats weighing ˜300 g at the beginning of the experiment were kept on a 12 hour on/off light cycle. Lights out was adjusted to 12:00 p.m. to allow for dosing just prior to the start of their dark period. Rats (8-12/group) were fed powdered chow and water ad libitum. For 1 week before treatment, 24-hour food intake and body weight change was recorded to assess a baseline for the group during vehicle treatment. […] The changes in body weight and food intake for the 24 hour period after dosing were determined. The changes in body weight and food intake for the 48 hour period, and in same cases for 72 hours as well, after dosing were also measured to determined reversal of changes in body weight and food intake effect back to baseline.

[2] = biological target: T1, hMC5-R (Homo sapiens, UniProt P33032); assay: competitive inhibition binding assay, 125I-NDP-α-MSH, membranes
T1 construct: expressed in transfected cells
T1 sequence (P33032 whole entry): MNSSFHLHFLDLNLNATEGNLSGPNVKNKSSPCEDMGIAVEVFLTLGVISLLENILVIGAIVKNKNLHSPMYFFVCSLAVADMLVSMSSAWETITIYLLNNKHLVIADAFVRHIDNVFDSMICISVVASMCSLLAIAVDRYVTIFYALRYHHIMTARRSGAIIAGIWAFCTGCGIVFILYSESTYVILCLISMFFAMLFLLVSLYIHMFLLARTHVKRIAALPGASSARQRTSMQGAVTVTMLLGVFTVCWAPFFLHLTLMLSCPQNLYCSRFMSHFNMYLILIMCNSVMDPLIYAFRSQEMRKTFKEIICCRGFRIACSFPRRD
Procedure: (§1) A competitive inhibition binding assay was conducted using membranes prepared from hMC3-R, hMC4-R, hMC5-R, and B-16 mouse melanoma cells (containing MC1-R) using 0.4 nM ^125I-NDP-α-MSH (New England Nuclear, Boston, Mass., USA) in 50 mM HEPES buffer containing 1 mM MgCl2, 2 mM CaCl2, and 5 mM KCl, at pH 7.2. The assay tube also contained a chosen concentration of the test compound of this invention, for determining its efficacy in inhibiting the binding of ^125I-NDP-α-MSH to its receptor.
(§2) Incubation was for 90 minutes at room temperature, after which the assay mixture was filtered and the membranes washed three times with ice cold buffer. The filter was dried and counted in a gamma counter for remaining radioactivity bound to the membranes. 100% specific binding was defined as the difference in radioactivity (cpm) bound to cell membranes in the absence and presence of 1 μM α-MSH. […] Each assay was conducted in triplicate and the actual mean values are described. The Ki (nM) of certain compounds of the invention were determined.

[3] = biological target: T2, hMC3-R (Homo sapiens, UniProt P41968); assay: as above
T2 construct: expressed in transfected cells
T2 sequence (P41968 whole entry): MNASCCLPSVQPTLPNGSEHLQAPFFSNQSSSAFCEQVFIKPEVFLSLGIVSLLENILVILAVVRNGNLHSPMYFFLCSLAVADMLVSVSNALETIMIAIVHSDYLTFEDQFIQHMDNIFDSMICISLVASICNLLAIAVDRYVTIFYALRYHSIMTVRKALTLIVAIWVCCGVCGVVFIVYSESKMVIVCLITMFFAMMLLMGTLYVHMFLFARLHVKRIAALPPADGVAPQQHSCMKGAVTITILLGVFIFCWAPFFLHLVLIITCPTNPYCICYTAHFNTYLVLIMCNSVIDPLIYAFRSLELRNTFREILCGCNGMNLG
Procedure: as §1, §2

[4] = biological target: T3, hMC4-R (Homo sapiens, UniProt P32245); assay: as above
T3 construct: expressed in transfected cells
T3 sequence (P32245 whole entry): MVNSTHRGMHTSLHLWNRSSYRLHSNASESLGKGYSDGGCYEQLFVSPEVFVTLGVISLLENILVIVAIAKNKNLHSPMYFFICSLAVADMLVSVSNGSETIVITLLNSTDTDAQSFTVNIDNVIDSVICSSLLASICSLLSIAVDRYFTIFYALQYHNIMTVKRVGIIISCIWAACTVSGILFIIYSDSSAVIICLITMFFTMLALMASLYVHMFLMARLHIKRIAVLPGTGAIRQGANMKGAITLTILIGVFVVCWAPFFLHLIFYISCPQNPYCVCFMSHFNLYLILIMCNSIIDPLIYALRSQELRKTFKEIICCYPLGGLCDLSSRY
Procedure: as §1, §2

[5] = biological target: T4, MC1-R (B-16 mouse melanoma cells) (Mus musculus, UniProt Q01727); assay: as above
T4 construct: B-16 mouse melanoma cells (containing MC1-R); endogenous in cells; host or cells: B-16 mouse melanoma cells
T4 sequence (Q01727 whole entry): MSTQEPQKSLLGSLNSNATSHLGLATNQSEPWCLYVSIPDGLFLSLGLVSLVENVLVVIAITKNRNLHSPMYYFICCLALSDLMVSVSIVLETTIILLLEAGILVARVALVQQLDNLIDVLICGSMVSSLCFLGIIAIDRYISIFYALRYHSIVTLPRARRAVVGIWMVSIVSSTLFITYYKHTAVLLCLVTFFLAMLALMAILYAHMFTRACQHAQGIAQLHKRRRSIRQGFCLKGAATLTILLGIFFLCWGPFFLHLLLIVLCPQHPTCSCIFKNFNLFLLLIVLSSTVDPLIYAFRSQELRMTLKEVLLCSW
Procedure: as §1, §2

[6] = biological target: T5, MC4-R (HEK-293 cells expressing MC4-R) (Homo sapiens, UniProt P32245); assay: cAMP assay for agonist/antagonist status; type: cell-based; details: antagonism = inhibition of α-MSH-induced cAMP
T5 construct: expressed in transfected cells; host or cells: HEK-293
T5 sequence (P32245 whole entry): as the sequence (P32245 whole entry) above
Procedure: (§3) Functional evaluation of compounds at melanocortin receptors was performed by measuring the accumulation of intracellular cAMP in HEK-293 cells expressing MC3-R, MC4-R or MC5-R, and in B-16 mouse melanoma cells (containing MC1-R). Cells, suspended in Earle's Balanced Salt Solution containing 10 mM HEPES, pH 7.5, 5 mM MgCl2, 1 mM glutamine, 0.1% albumin and 0.6 mM 3-isobutyl-1-methyl-xanthine, a phosphodiesterase inhibitor, were plated in 96 well plates at a density of 0.5×10^5 cells per well. Cells were incubated with the test compounds in the presence or absence of α-MSH for 1 hour at 37° C. cAMP levels were measured by EIA (Amersham) in the cell lysates. Data analysis and EC50 values were determined using nonlinear regression analysis with Prism Graph-Pad software.
(§4) The agonist/antagonist status with respect to MC4-R of certain compounds of the invention was determined. Antagonistic activity was determined by measuring the inhibition of α-MSH-induced cAMP levels following exposure to the compounds as in Example 2.

[7] = biological target: T6, MC5-R (HEK-293 cells expressing MC5-R) (Homo sapiens, UniProt P33032); assay: cAMP assay for agonist/antagonist status; type: cell-based; details: antagonism = inhibition of α-MSH-induced cAMP
T6 construct: expressed in transfected cells; host or cells: HEK-293
T6 sequence (P33032 whole entry): as the sequence (P33032 whole entry) above
Procedure: as §3, §4

[8] = biological target: T4, MC1-R (B-16 mouse melanoma cells); assay: cAMP assay for agonist/antagonist status; type: cell-based; details: antagonism = inhibition of α-MSH-induced cAMP
Procedure: as §3, §4

[9] = ICV feeding studies, change in food intake and body weight; type: in vivo, rat; details: 1 nmol, male Sprague-Dawley rats
Procedure: Change in food intake and body weight was evaluated for selected compounds. Male Sprague-Dawley rats weighing ˜300 g at the beginning of the experiment were kept on a 12 hour on/off light cycle. Lights out was adjusted to 12:00 p.m. to allow for dosing just prior to the start of their dark period. Rats (8-12/group) were fed powdered chow and water ad libitum. For 1 week before treatment, 24-hour food intake and body weight change was recorded to assess a baseline for the group during vehicle treatment. The rats were dosed ICV with vehicle or selected compounds (1-3 nmol). The changes in body weight and food intake for the 24 hour period after dosing were determined. The changes in body weight and food intake for the 48 hour period, and in same cases for 72 hours as well, after dosing were also measured to determined reversal of changes in body weight and food intake effect back to baseline.

[10] = penile erection (PE) studies in male rats; type: in vivo, rat; details: IV, dose levels of 0.3, 3 and 30 μg/Kg
Procedure: The ability of compounds to induce penile erection (PE) in male rats was evaluated with selected compounds. Male Sprague-Dawley rats weighing 200-250 g were kept on a 12 hour on/off light cycle with food and water ad libitum. All behavioral studies were performed between 10 a.m. and 5 p.m. Groups of 4-8 rats were treated with compounds at a variety of doses via intravenous (IV) or intracerebroventricular (ICV) routes. Immediately after treatment, rats were placed into individual polystyrene cages (27 cm long, 16 cm wide, and 25 cm high) for behavioral observation. The iv and icv treated rats were observed respectively for 30 minutes and 120 min and the number of yawns, grooming bouts and PEs were recorded in 10-minute bins.

For `C[C@@H]1CN(C(=O)[C@H](N)Cc2ccc(Cl)cc2)[C@@H](CCCNC(=N)N)CN1CCc1ccc2ccccc2c1` [Example 15, N-{3-[1-[2(R)-Amino-3-(4-chloro-phenyl)-propionyl]-5(R)-methyl-4-(2-naphthalen-2-yl-ethyl)-piperazin-2(S)-yl]-propyl}-guanidine], the “24 hour change in food intake” value [1] was -9.6 g, the change in weight ([1]; 24 hour) was -6.6 g and the inhibition at 1 µM ([2]; 1 μM compound, average of triplicates, read-out: Inhibition at 1 μM MC5-R) was 52%. The Ki ([2]; read-out: Ki (nM) MC5-R) was 551 nM, the inhibition at 1 µM ([3]; 1 μM compound, average of triplicates, read-out: Inhibition at 1 μM MC3-R) was 61% and the Ki ([3]; read-out: Ki (nM) MC3-R) was 160 nM. For the same compound, the inhibition at 1 µM ([4]; 1 μM compound, average of triplicates, read-out: Inhibition at 1 μM MC4-R) was 97%, the Ki ([4]; read-out: Ki (nM) MC4-R) was 11 nM and the inhibition at 1 µM ([5]; 1 μM compound, average of triplicates, results less than 0% reported as 0%) was 85%. For the same compound, the Ki ([5]; read-out: Ki (nM) MC1-R) was 94 nM, the “agonist/antagonist status as to MC4-R” value [6] was “agonist” and the “agonist/antagonist status as to MC5-R” value [7] was “agonist”. The “agonist/antagonist status as to MC1-R” value [8] was “agonist”, the “24 hour change in food intake” value [9] was -3.9 g and the change in weight ([9]; 24 hour) was -3.9 g. The PE effect [10] was “no observed effect”.
